Measurements published in patent publication US20250382298A1, “NITROGEN-CONTAINING COMPOUND AND USE THEREOF” (SUZHOU GENHOUSE BIO CO., LTD., priority 2022, published 2025).
Where two headings read alike, the source gives them in different places.

What was measured:
KIF18A = KIF18A (Homo sapiens (Human), UniProt Q8NI77); test: KIF18A enzymatic activity inhibition, ADP-Glo kit; assay type: biochemical; settings: 4 nM KIF18A, 30 μM ATP
Summary of the method: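 KIF18A (1467) at 4 nM was preincubated with compound for 20 min at 37 °C in 15 mM Tris pH 7.5, 10 mM MgCl2, 0.01% Pluronic F-68. The reaction was started with 30 μM ATP and ran 15 min at room temperature.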

[1] = Pharmacokinetic test in rats; assay type: in vivo; settings: SD rats; for AUC / Cmax / half-life: rat, plasma; for half-life: read-out: t½ (converted)
Procedure: In this example, the pharmacokinetic behavior of the compounds after intravenous injection (IV) and intragastric (PO) administration in SD rats was tested.
On the day of administration, rats were weighed for actual body weight and the administration volume was calculated. Each compound was tested in two groups with 3 rats in each group; one group was subjected to administration by single intravenous injection, and the other group was subjected to single intragastric administration. Whole blood samples were collected via the jugular vein at prescribed time points (0.25 h, 0.5 h, 1 h, 2 h, 4 h, 8 h, and 24 h after administration). After blood sample collection, the samples were immediately transferred to labeled commercial sample tubes containing K2-EDTA (0.85-1.15 mg), followed by centrifugation (3200×g, 4° C., 10 min) and plasma collection. The plasma was transferred to a pre-cooled centrifuge tube, frozen in dry ice, and then stored in an ultra-low temperature freezer at −60° C. or lower until the LC-MS/MS analysis.
Plasma concentrations were determined by the LC-MS/MS method. Plasma drug concentration data for the compounds were processed using a non-compartmental model in the WinNonlin Version 6.3 (Pharsight, Mountain View, CA) pharmacokinetic software. The relevant pharmacokinetic parameters were calculated by a linear-log trapezoidal method.

[2] = Stability test in mouse liver microsomes; assay type: in vitro ADME, CD-1 mice; settings: mouse liver microsomes 0.5 mg/mL, 1.0 μM substrate; for CLint scaled at 1 μM / half-life at 1 μM: CD-1, pH 7.4; for CLint scaled at 1 μM: read-out: MLM 0.5 CLint(liver); for half-life at 1 μM: read-out: MLM 0.5 T½
Procedure: The phase I metabolic stability of the compounds in liver microsomes of CD-1 mice, Sprague-Dawley rats, beagle dogs, cynomolgus monkeys, and humans was assessed.
The animal and human liver microsomes used in the test system were purchased from Xenotech, Corning, or other qualified suppliers and stored in a freezer at a temperature below −60° C. prior to use.
The test samples and control compounds were separately incubated with animal and human liver microsomes at 37±1° C. for a period of incubation time up to 60 min. The samples were removed at the indicated time points, and the reaction was stopped with acetonitrile or another organic solvent containing an internal standard. After centrifugation, the resulting supernatants were assayed by the liquid chromatography-tandem mass spectrometry (LC-MS/MS) method.
73.21 g of dipotassium hydrogen phosphate trihydrate and 10.78 g of potassium dihydrogen phosphate were dissolved in 4000 mL of ultrapure water. The solution was adjusted to pH 7.40±0.10 with 10% phosphoric acid or 1 M potassium hydroxide to make a final concentration of 100 mM.
The test sample powder was prepared into a stock solution at a certain concentration with DMSO or another organic solvent, which was then further diluted with a suitable organic solvent.
Microsomes of each species were diluted into a 2× working solution with a 100 mM potassium phosphate buffer. The final concentration of the microsomes in the reaction system was 0.5 mg/mL.
An appropriate amount of nicotinamide adenine dinucleotide phosphate (NADP) and isocitric acid (ISO) powder was weighed out, dissolved in a magnesium chloride solution, and shaken and mixed well. An appropriate amount of isocitrate dehydrogenase (IDH) was added, and the mixture was mixed well by gently turning upside down. The final concentrations in the reaction system were: 1 mM NADP, 1 mM magnesium chloride, 6 mM ISO, and 1 unit/mL IDH.
The stop solution was prepared with acetonitrile or another organic solvent containing an internal standard (tolbutamide or another suitable compound). The prepared stop solution was stored in a freezer at 2-8° C.
Incubation was performed in a 96-well plate. Eight incubation plates were prepared and designated T0, T5, T15, T30, T45, T60, Blank60, and NCF60, respectively. The first 6 plates corresponded to reaction time points of […], respectively. No test sample or control compound was added to the Blank60 plate, and samples were taken after 60 min of incubation. In the NCF60 plate, incubation was performed for 60 min using the potassium phosphate buffer instead of the NADPH regeneration system solution. Three replicates were made for samples in all conditions.
The microsomes and the test sample or control compound were mixed, and then the incubation plates Blank60, T5, T15, T30, T45, and T60 except for TO and NCF60 were placed in a 37° C. water bath for pre-incubation for about 10 min. In the incubation plate T0, a stop solution was first added, followed by addition of the NADPH regeneration system working solution, and 98 μL of the potassium phosphate buffer was added to each sample well of the incubation plate NCF60 to initiate the reaction. After the pre-incubation of the incubation plates Blank60, T5, T15, T30, T45, and T60 was completed, 98 μL of the NADPH regeneration system working solution was added to each sample well to initiate the reaction. The reaction temperature was 37±1° C., the final volume of the reaction was 200 μL, and the reaction system included 0.5 mg/mL microsomes, 1.0 μM substrate, 1 mM NADP, 6 mM ISO, and 1 unit/ml IDH.
At 5 min, 15 min, […], 45 min, and 60 min, a cold stop solution containing an internal standard was added to the reaction plate to stop the reaction.
All the reaction plates after the reaction was stopped were shaken well and centrifuged at 3220×g at 4° C. for 20 min. After the supernatant was diluted at a certain ratio, LC-MS/MS analysis was performed. […]

Sequence of KIF18A (Q8NI77 1-467): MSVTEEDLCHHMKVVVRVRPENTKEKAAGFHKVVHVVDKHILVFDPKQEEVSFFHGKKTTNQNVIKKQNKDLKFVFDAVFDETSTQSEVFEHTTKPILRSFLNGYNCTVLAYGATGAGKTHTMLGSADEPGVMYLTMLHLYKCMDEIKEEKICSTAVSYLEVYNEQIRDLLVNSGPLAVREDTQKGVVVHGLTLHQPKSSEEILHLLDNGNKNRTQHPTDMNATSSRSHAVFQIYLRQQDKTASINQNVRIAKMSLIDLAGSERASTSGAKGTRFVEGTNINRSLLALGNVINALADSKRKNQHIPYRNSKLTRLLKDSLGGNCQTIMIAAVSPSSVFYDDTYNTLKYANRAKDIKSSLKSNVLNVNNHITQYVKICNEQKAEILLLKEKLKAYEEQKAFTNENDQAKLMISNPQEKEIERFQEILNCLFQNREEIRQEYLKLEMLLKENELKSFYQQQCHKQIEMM

IC50 (KIF18A) [µM] | F ([1]; PO @5mpk) [%] | AUC ([1]; 5 mg/kg, PO @5mpk) [µM·h] | Cmax ([1]; 5 mg/kg, PO @5mpk) [nM] | half-life ([1]; 5 mg/kg, PO @5mpk) [h] | CLint scaled at 1 μM [2] [mL/min/kg] | half-life at 1 μM [2] [h] | F ([1]; PO @30mpk) [%] | AUC ([1]; 30 mg/kg, PO @30mpk) [µM·h] | Cmax ([1]; 30 mg/kg, PO @30mpk) [nM] | half-life ([1]; 30 mg/kg, PO @30mpk) [h] | Structure (SMILES) | MLM 0.5 CLint(liver) [2] [mL/min/kg] | MLM 0.5 T½ [2] [h]
0.0198 | 57 | 16.2 | 1330 | 7 |  |  |  |  |  |  | Cc1cc(NC(=O)c2ccc(NS(=O)(=O)CCO)cc2N2CC3CCC(C3)C2)nc(N2CCC(F)(F)CC2)n1 [Compound 3] |  | 
0.0956 | 23 | 8.92 | 509 | 55.8 | < 38 | > 2.42 |  |  |  |  | O=C(Nc1cc2ccccc2c(N2CCC(F)(F)CC2)n1)c1ccc(NS(=O)(=O)CCO)cc1N1CCC2(CC1)CC2 [Compound 6] |  | 
0.0213 | 16 | 1.56 | 303 | 5.9 | 219 | 0.418 |  |  |  |  | O=C(Nc1cn2ccnc2c(N2CCC(F)(F)CC2)n1)c1ccc(NS(=O)(=O)CCO)cc1N1CCC2(CC1)CC2 [Compound 8] |  | 
0.0257 |  |  |  |  | 182 | 0.502 |  |  |  |  | CS(=O)(=O)Nc1ccc(C(=O)Nc2cn3ccnc3c(N3CCC(F)(F)CC3)n2)c(N2CCC3(CC2)CC3)c1 [Compound 10] |  | 
0.0287 | 25 | 1.92 | 351 | 6.4 | 54.1 | 1.69 |  |  |  |  | O=C(Nc1cc2c(c(N3CCC(F)(F)CC3)n1)COC2)c1ccc(NS(=O)(=O)CCO)cc1N1CCC2(CC1)CC2 [Compound 14] |  | 
0.126 | 27 | 9.67 | 540 | 22.8 | 50.6 | 1.81 |  |  |  |  | O=C(Nc1cc2ccsc2c(N2CCC(F)(F)CC2)n1)c1ccc(NS(=O)(=O)CCO)cc1N1CCC2(CC1)CC2 [Compound 15] |  | 
0.0164 | 39 | 3.2 | 582 | 4.9 |  |  |  |  |  |  | O=C(Nc1cn2ccnc2c(N2CCC(F)(F)CC2)n1)c1ccc(NS(=O)(=O)CCO)cc1N1CC2CCC(C2)C1 [Compound 17] |  | 
 | 63 | 20.5 | 1240 | 12.2 | 52.3 | 1.75 |  |  |  |  | CS(=O)(=O)Nc1ccc(C(=O)Nc2cn3ccnc3c(N3CCC(F)(F)CC3)n2)c(N2CC3CCC(C3)C2)c1 [Compound 19] |  | 
 | 24.7 | 33.9 | 2090 | 10.6 | < 38 | > 2.42 |  |  |  |  | O=C(Nc1cc2cccnc2c(N2CCC(F)(F)CC2)n1)c1ccc(NS(=O)(=O)CCO)cc1N1CCC2(CC1)CC2 [Compound 21] |  | 
0.0264 |  |  |  |  |  |  |  |  |  |  | O=C(Nc1cc2cc[nH]c2c(N2CCC(F)(F)CC2)n1)c1ccc(NS(=O)(=O)CCO)cc1N1CCC2(CC1)CC2 [Compound 22] |  | 
0.0036 |  |  |  |  | < 38 | > 2.42 |  |  |  |  | O=C(Nc1cn2ncnc2c(N2CCC(F)(F)CC2)n1)c1ccc(NS(=O)(=O)CCO)cc1N1CCC2(CC1)CC2 [Compound 23] |  | 
 |  |  |  |  | 14.3 | 6.34 | 25.7 | 62.5 | 3430 | 66.3 | O=C(Nc1cn2c(F)cnc2c(N2CCC(F)(F)CC2)n1)c1ccc(NS(=O)(=O)CCO)cc1N1CCC2(CC1)CC2 [Compound 34] |  | 
 |  |  |  |  | 2.3 | 40.3 |  |  |  |  | CS(=O)(=O)Nc1ccc(C(=O)Nc2cc3cc[nH]c3c(N3CCC(F)(F)CC3)n2)c(N2CCC3(CC2)CC3)c1 [Compound 47] |  | 

Structure (SMILES) | IC50 (KIF18A) [µM] | F ([1]; PO @5mpk) [%] | AUC ([1]; 5 mg/kg, PO @5mpk) [µM·h] | Cmax ([1]; 5 mg/kg, PO @5mpk) [nM] | half-life ([1]; 5 mg/kg, PO @5mpk) [h] | CLint scaled at 1 μM [2] [mL/min/kg] | half-life at 1 μM [2] [h] | F ([1]; PO @30mpk) [%] | AUC ([1]; 30 mg/kg, PO @30mpk) [µM·h] | Cmax ([1]; 30 mg/kg, PO @30mpk) [nM] | half-life ([1]; 30 mg/kg, PO @30mpk) [h] | MLM 0.5 CLint(liver) [2] [mL/min/kg] | MLM 0.5 T½ [2] [h]
O=C(Nc1cn2cnnc2c(N2CCC(F)(F)CC2)n1)c1ccc(NS(=O)(=O)CCO)cc1N1CCC2(CC1)CC2 [Compound 24] | 0.0037 |  |  |  |  |  |  |  |  |  |  | 64.7 | 1.41
